Reference: publication PMC5897276, “External radiation exposure, excretion, and effective half-life in ^177Lu-PSMA-targeted therapies” (EJNMMI Research, 2018)
Values joined by “and” are separate entries in the source; they are usually repeats but may differ in a detail not shown here. Equal entries are not always repeated. Where two headings read alike, the source gives them in different places. Marks after values point to notes of the source that are not given here.

Assays:
[1] = Whole-body dose rate measurement at a distance of 2 m and calculation of effective half-life; assay type: in vivo, patients
Description: The measurements and analyses were carried out with 50 patients from both departments as characterized in Table 1. All patients of Department 2 were released from the hospital 72 h p. i. for organizational reasons. Therefore, dose rate measurements were also available for ti = 72 h p. i.
In both departments, the dose rate monitor LB 123 D-H10 (Berthold Technologies, Bad Wildbad, Germany) was used, which is suitable for dose rate levels between 0.05 μSv/h and 10 mSv/h within an energy range from 30 keV to 1.3 MeV. The systems were officially calibrated, and regular quality checks were carried out. The patients were measured in the standing position from the anterior (DRA) and posterior (DRP) view at a distance of 2 m from the surface of the detector. The dose rate DR for different time points (see Table 1) was then calculated as the geometric mean of both measurements5 DRti=DRAti∙DRPti.
(§1) The data were fitted by a mono-exponential curve, and the effective half-life was calculated for the different time points: 24, 48, and 72 h (only from the data of Department 2). […] For all comparisons, the time point 48 h was chosen as the reference, because it is standard that the patients are released from the therapy ward after 48 h. Subsequently, Eq. 4 was used to determine the dose D to the public after the discharge of the patient for different time points of release (24, 48, and 72 h p. i.), substituting T1/2eff by T1/2ind (individual half-life of each patient), T1/2phys (physical half-life of ^177Lu), and T1/2max (maximum of the calculated effective half-life of the patient cohort) for different calculations. In addition, a correlation analysis (Spearman and Pearson) of the dose rate and administered activity was performed.

[2] = Estimation of dose to the public after discharge of the patient (Eq. 4); assay type: in vivo, patients
From the text: The determination of the expected dose D to the public requires knowledge of the dose rate DR at the time point of the release of the patient and of the effective half-life T1/2eff. The dose D can then be calculated according to the following equation:4 D=DR∙T1/2eff/ln2.
This equation was originally recommended by the German Commission on Radiological Protection to conservatively estimate the dose to the public after iodine-131 therapy.
as §1

[3] = design: method as in PMID 27089552; conditions: group of 7 patients; cited from earlier work
[4] = design: method as in PMID 27089552; conditions: cited from earlier work; for Mean dose rate at 1 m: 23 patients, 7.5 GBq
[5] = time point 45.7 ± 2.1 h p. i. (48 h)
[6] = time point 67.7 ± 2.3 h p. i. (72 h), 25 patients (Department 2)
[7] = discharge 24 h p. i., T1/2ind (value from the 48-h measurement point)
[8] = discharge 72 h p. i., T1/2ind, 25 patients (Department 2)
[9] = discharge 72 h p. i., T1/2max, 25 patients (Department 2)
[10] = discharge 72 h p. i., T1/2phys, 25 patients (Department 2)

O=C([O-])CN1CCN(CC(=O)[O-])CCN(CC(=O)NCC2CCC(C(=O)N[C@@H](Cc3ccc4ccccc4c3)C(=O)NCCCC[C@H](NC(=O)N[C@@H](CCC(=O)O)C(=O)O)C(=O)O)CC2)CCN(CC(=O)[O-])CC1.[177Lu+3] (some centres unmarked) [^177Lu-PSMA-617]
Dose rate (measured at a distance of 2 m), mean ([1]; time point 2 ± 0.3 h p. i.): 3.6 ± 0.7 μSv/h and 3.6 μSv/h | Dose rate (measured at a distance of 2 m), min ([1]; time point 2 ± 0.3 h p. i.): 2.2 μSv/h | Dose rate (measured at a distance of 2 m), max ([1]; time point 3.9 ± 0.7 h p. i.): 3.8 μSv/h | Dose rate (measured at a distance of 2 m), mean ([1]; time point 3.9 ± 0.7 h p. i.): 2.8 μSv/h | Dose rate (measured at a distance of 2 m), min ([1]; time point 3.9 ± 0.7 h p. i.): 1.3 μSv/h | Dose rate (measured at a distance of 2 m), mean ([1]; time point 24.2 ± 0.7 h p. i.): 1.6 ± 0.6 μSv/h and 1.6 μSv/h | Dose rate (measured at a distance of 2 m), min ([1]; time point 24.2 ± 0.7 h p. i.): 0.5 μSv/h | Dose rate (measured at a distance of 2 m), max [1, 5]: 2.3 μSv/h | Dose rate (measured at a distance of 2 m), mean [1, 5]: 1.1 ± 0.5 μSv/h and 1.1 μSv/h | Dose rate (measured at a distance of 2 m), min [1, 5]: 0.4 μSv/h | Dose rate (measured at a distance of 2 m), max [1, 6]: 2.1^a μSv/h | Dose rate (measured at a distance of 2 m), mean [1, 6]: 0.7 ± 0.4 μSv/h and 0.7^a μSv/h | Dose rate (measured at a distance of 2 m), min [1, 6]: 0.1^a μSv/h | Estimated dose to the public after 1 cycle, mean [2, 7]: 100 μSv and 99 μSv | Estimated dose to the public after 1 cycle, min [2, 7]: 25 μSv | Estimated dose to the public after 1 cycle, max ([2]; discharge 24 h p. i., T1/2max): 410 μSv | Estimated dose to the public after 1 cycle, mean ([2]; discharge 24 h p. i., T1/2max): 208 μSv | Estimated dose to the public after 1 cycle, min ([2]; discharge 24 h p. i., T1/2max): 75 μSv | Estimated dose to the public after 1 cycle, max ([2]; discharge 24 h p. i., T1/2phys): 779 μSv | Estimated dose to the public after 1 cycle, mean ([2]; discharge 24 h p. i., T1/2phys): 396 μSv | Estimated dose to the public after 1 cycle, min ([2]; discharge 24 h p. i., T1/2phys): 142 μSv | Estimated dose to the public after 1 cycle, min ([2]; discharge 48 h p. i., T1/2ind): 13 μSv | Estimated dose to the public after 1 cycle, max ([2]; discharge 48 h p. i., T1/2max): 294 μSv | Estimated dose to the public after 1 cycle, mean ([2]; discharge 48 h p. i., T1/2max): 139 μSv | Estimated dose to the public after 1 cycle, min ([2]; discharge 48 h p. i., T1/2max): 49 μSv | Estimated dose to the public after 1 cycle, max ([2]; discharge 48 h p. i., T1/2phys): 560 μSv | Estimated dose to the public after 1 cycle, mean ([2]; discharge 48 h p. i., T1/2phys): 263 μSv | Estimated dose to the public after 1 cycle, min ([2]; discharge 48 h p. i., T1/2phys): 93 μSv | Estimated dose to the public after 1 cycle, max [2, 8]: 204 μSv | Estimated dose to the public after 1 cycle, mean [2, 8]: 50 μSv | Estimated dose to the public after 1 cycle, min [2, 8]: 17 μSv | Estimated dose to the public after 1 cycle, max [2, 9]: 233 μSv | Estimated dose to the public after 1 cycle, mean [2, 9]: 105 μSv | Estimated dose to the public after 1 cycle, min [2, 9]: 49 μSv | Estimated dose to the public after 1 cycle, max [2, 10]: 443 μSv | Estimated dose to the public after 1 cycle, mean [2, 10]: 200 μSv | Estimated dose to the public after 1 cycle, min [2, 10]: 93 μSv | Expected dose to the public per cycle of therapy ([2]; human, in vivo): below 1 mSv | Maximum dose to individual members of the public per treatment cycle ([2]; patient discharged after 72 h): ~ 190 ± 36 μSv | Estimated dose to the public per cycle ([2]; physical half-life of lutetium-177 used for the calculation (conservative approach)): below 1 mSv | Administered activity excreted within the first 6 h, mean [3]: 45% | Mean dose rate at 1 m ([4]; after 4 h): 23 ± 6 μSv/h | Mean dose rate at 1 m ([4]; after 6 h): 15 ± 4 μSv/h | Mean dose received by close family members ([4]; measured for 5 days post-injection with optically stimulated luminescence dosimeter, patients released 6 h p. i.): 202 ± 43 μSv
